The test system of this experiment is phosphorylation of Hsp27 (Ser78) in Thp-1 human acute monocytic leukemia cells. Briefly: MK2 cellular assay, detection of total and phospho-Hsp27 (Serine 78) by MSD ELISA (Thp1). Format: cell-based. Conditions: Thp-1 cells, 1 hour compound, then 50 ng/mL LPS for 45 minutes, read-out: pHSP27 signaling EC50. As for the experimental part:
MK2 Cellular Assay—Detection of Total and Phospho-Hsp27 (Serine 78) by MSD ELISA (Thp1)
Compounds of the invention can be assayed in Thp-1 human acute monocytic leukemia cells to measure inhibition of MK2 activity according to procedures detailed in the '463 application.
Specifically, Thp-1 cells were grown in culture medium containing RPMI/10% FBS (fetal bovine serum)/0.05 mM 2-mercaptoethanol. 72 hours prior to the assay, 8×10^4 cells per well were plated in a 96 well flat bottom plate along with 10 ng/mL phorbol 12-myristate 13-acetate (PMA). Cells were cultured in an incubator at 37° C. until needed for the assay. Cell plate media was replaced with culture media just prior to assay while compound dilutions were being made.
Stock solutions of test compound, 1 mM in DMSO, were prepared. […]
The MULTI-SPOT Phospho(Ser78)/Total HSP27 ELISA Assay kit was purchased from Meso Scale […] (MSD; catalog #K15128D). […] 150 μl/well 1×MSD read buffer was added (4× read buffer supplied with kit) and the plate was analyzed on the MSD SECTOR®Imager for analysis. The SECTOR®Imager measures intensity of emitted light to provide a quantitative measure of phosphorylated HSP27 (Ser78) and total HSP27 present in the sample. The relative percent phosphoprotein in a sample is calculated by dividing the Phospho-HSP27 signal intensity over the total HSP27 signal intensity measured in each well.
For orientation: ELISA stands for enzyme-linked immunosorbent assay.

The structures appear in SMILES notation.

Consider `CCOCc1cnc(Cl)nc1Oc1ccc2c(ccc3sc4c(c32)NC[C@H](C)NC4=O)n1` [Compound I-82], for which the half-maximal effective concentration (EC50) was in the range of 101 to 500 nM.

For orientation: EC50 means the concentration at which the effect is half-maximal.
